Laboratory results from patent publication US7632844B2, “2-hydroxy-6-phenylphenanthridines as PDE-4 inhibitors” (Nycomed GmbH, priority 2002, dated 2009).

The molecules below were run against T1, PDE4B2 (GB no. M97515) (Homo sapiens, UniProt Q07343) (assay: Inhibition of PDE4B2 activity, Method b (modified SPA test, recombinant PDE expressed in SF21 cells)). Details: 0.5 μM cAMP, read-out: Inhibition of the PDE4 activity, −log IC50 (converted).
T1 construct: made in house; host or cells: SF21 insect cells (baculovirus; virus made in SF9 cells)
T1 sequence (Q07343 1-564 isoform Q07343-2): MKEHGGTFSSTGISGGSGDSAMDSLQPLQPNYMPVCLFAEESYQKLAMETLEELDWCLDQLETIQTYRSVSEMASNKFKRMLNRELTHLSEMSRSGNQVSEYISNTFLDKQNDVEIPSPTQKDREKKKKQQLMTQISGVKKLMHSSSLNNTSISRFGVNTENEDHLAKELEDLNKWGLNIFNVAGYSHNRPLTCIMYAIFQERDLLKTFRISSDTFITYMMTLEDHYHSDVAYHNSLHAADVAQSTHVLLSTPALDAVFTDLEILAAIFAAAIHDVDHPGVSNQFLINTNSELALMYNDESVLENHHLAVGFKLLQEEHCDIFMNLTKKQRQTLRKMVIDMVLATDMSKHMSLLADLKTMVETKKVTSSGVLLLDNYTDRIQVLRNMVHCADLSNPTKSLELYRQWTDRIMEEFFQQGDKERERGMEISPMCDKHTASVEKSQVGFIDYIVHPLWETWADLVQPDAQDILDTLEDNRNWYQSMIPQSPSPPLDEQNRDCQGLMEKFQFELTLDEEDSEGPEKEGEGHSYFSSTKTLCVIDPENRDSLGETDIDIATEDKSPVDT
Format: biochemical
Experimental: The PDE4B2 (GB no. M97515) was a gift of Prof. M. Conti (Stanford University, USA). It was amplified from the original plasmid (pCMV5) via PCR with primers Rb9 (5′-[…]-3′) and Rb10 (5′-[…]-3′) and cloned into the pCR-Bac vector (Invitrogen, Groningen, NL).
The recombinant baculovirus was prepared by means of homologous recombination in SF9 insect cells. The expression plasmid was cotransfected with Bac-N-Blue (Invitrogen, Groningen, NL) or Baculo-Gold DNA (Pharmingen, Hamburg) using a standard protocol (Pharmingen, Hamburg). Wt virus-free recombinant virus supernatant was selected using plaque assay methods. After that, high-titre virus supernatant was prepared by amplifying 3 times. PDE was expressed in SF21 cells by infecting 2×10^6 cells/ml with an MOI (multiplicity of infection) between 1 and 10 in serum-free SF900 medium (Life Technologies, Paisley, UK). The cells were cultured at 28° C. for 48-72 hours, after which they were pelleted for 5-10 min at 1000 g and 4° C.
The SF21 insect cells were resuspended, at a concentration of approx. 10^7 cells/ml, in ice-cold (4° C.) homogenization buffer (20 mM Tris, pH 8.2, containing the following additions: 140 mM NaCl, 3.8 mM KCl, 1 mM EGTA, 1 mM MgCl2, 10 mM β-mercaptoethanol, 2 mM benzamidine, 0.4 mM Pefablock, 10 μM leupeptin, 10 μM pepstatin A, 5 μM trypsin inhibitor) and disrupted by ultrasonication. The homogenate was then centrifuged for 10 min at 1000×g and the supernatant was stored at −80° C. until subsequent use (see below). The protein content was determined by the Bradford method (BioRad, Munich) using BSA as the standard.
PDE4B2 activity is inhibited by the said compounds in a modified SPA (scintillation proximity assay) test, supplied by Amersham Biosciences (see procedural instructions “phosphodiesterase [3H]cAMP SPA enzyme assay, code TRKQ 7090”), carried out in 96-well microtiter plates (MTP's). The test volume is 100 μl and contains 20 mM Tris buffer (pH 7.4), 0.1 mg of BSA (bovine serum albumin)/ml, 5 mM Mg^2+, 0.5 μM cAMP (including about 50,000 cpm of [3H]cAMP), 1 μl of the respective substance dilution in DMSO and sufficient recombinant PDE (1000×g supernatant, see above) to ensure that 10-20% of the cAMP is converted under the said experimental conditions. […] After a preincubation of 5 min at 37° C., the reaction is started by adding the substrate (cAMP) and the assay is incubated for a further 15 min; after that, it is stopped by adding SPA beads (50 μl). In accordance with the manufacturer's instructions, the SPA beads had previously been resuspended in water, but were then diluted 1:3 (v/v) in water; the diluted solution also contains 3 mM IBMX to ensure a complete PDE activity stop. After the beads have been sedimented (>30 min), the MTP's are analyzed in commercially available luminescence detection devices. The corresponding IC50 values of the compounds for the inhibition of PDE activity are determined from the concentration-effect curves by means of non-linear regression.
`CCOc1cc2c(cc1OC)C(c1ccc(F)cc1)=N[C@@H]1CC[C@@H](O)C[C@H]21` (racemic) [Compound 51, (±)-(2RS,4aRS,10bRS)-9-Ethoxy-6-(4-fluoro-phenyl)-8-methoxy-1,2,3,4,4a,10b-hexahydro-phenanthridin-2-ol] was tested, and the IC50 was 0.182 to 6.03 nM.
In the case of `CCOc1cc2c(cc1OC)C(c1ccc(C(=O)OC)cc1)=N[C@@H]1CC[C@@H](O)C[C@H]21` (racemic) [Compound 50, (±)-4-((2RS,4aRS,10bRS)-9-Ethoxy-2-hydroxy-8-methoxy-1,2,3,4,4a,10 b-hexahydro-phenanthridin-6-yl)-benzoic acid methyl ester], the IC50 is reported as 0.182 to 6.03 nM.
In the case of `COc1cc2c(cc1OC)[C@H]1C[C@H](O)CC[C@H]1N=C2c1ccc(Cl)cc1` (racemic) [Compound 46, (±)-(2RS,4aRS,10bRS)-6-(4-Chloro-phenyl)-8,9-dimethoxy-1,2,3,4,4a,10 b-hexahydro-phenanthridin-2-ol], the IC50 is reported as 0.182 to 6.03 nM.
`CCCOc1cc(C2=N[C@@H]3CC[C@@H](O)C[C@@H]3c3cc(OC)c(OC)cc32)ccc1OC` (racemic) [Compound 48, (±)-(2RS,4aRS,10bRS)-8,9-Dimethoxy-6-(4-methoxy-3-propoxy-phenyl)-1,2,3,4,4a,10b-hexahydro-phenanthridin-2-ol] was tested, and the IC50 was 0.182 to 6.03 nM.
`CCCCOc1ccc(C2=N[C@@H]3CC[C@@H](O)C[C@@H]3c3cc(OC)c(OC)cc32)cc1` (racemic) [Compound 43, (±)-(2RS,4aRS,10bRS)-6-(4-Butoxy-phenyl)-8,9-dimethoxy-1,2,3,4,4a,10b-hexahydrophenanthridin-2-ol] gave an IC50 of 0.182 to 6.03 nM.
With `CCOc1cc2c(cc1OC)C(c1ccc(OC)c(F)c1)=N[C@@H]1CC[C@@H](O)C[C@H]21` (racemic) [Compound 59, (±)-(2RS,4aRS,10bRS)-9-Ethoxy-6-(3-fluoro-4-methoxy-phenyl)-8-methoxy-1,2,3,4,4a,10b-hexahydro-phenanthridin-2-ol] the IC50 was 0.182 to 6.03 nM.
With `COc1cc2c(cc1OC)[C@H]1C[C@H](O)CC[C@H]1N=C2c1ccc(OC(F)F)cc1` (racemic) [Compound 49, (±)-(2RS,4aRS,10bRS)-6-[4-(1,1-Difluoro-methoxy)-phenyl]-8,9-dimethoxy-1,2,3,4,4a,10b-hexahydro-phenanthridin-2-ol] the IC50 was 0.182 to 6.03 nM.
With `CCOc1cc2c(cc1OC)C(c1ccc(OC(F)F)c(OC(F)F)c1)=N[C@@H]1CC[C@@H](O)C[C@H]21` (racemic) [Compound 55, (±)-(2RS,4aRS,10bRS)-6-[3,4-Bis-(1,1-difluoro-methoxy)-phenyl]-9-ethoxy-8-methoxy-1,2,3,4,4a,10b-hexahydro-phenanthridin-2-ol] the IC50 was 0.182 to 6.03 nM.
Work on `COc1cc2c(cc1OC)[C@H]1C[C@H](O)CC[C@H]1N=C2c1ccc(NC(C)=O)cc1` (racemic) [Compound 45, (±)-N-[4-((2RS,4aRS,10bRS)-2-Hydroxy-8,9-dimethoxy-1,2,3,4,4a,10b-hexahydro-phenanthridin-6-yl)-phenyl]-acetamide] yielded an IC50 of 0.182 to 6.03 nM.
With `CCOc1cc2c(cc1OC)C(c1ccc(F)c(F)c1)=N[C@@H]1CC[C@@H](O)C[C@H]21` (racemic) [Compound 60, (±)-(2RS,4aRS,10bRS)-6-(3,4-Difluoro-phenyl)-9-ethoxy-8-methoxy-1,2,3,4,4a,10b-hexahydro-phenanthridin-2-ol] the IC50 was 0.182 to 6.03 nM.
With `CCOc1cc2c(cc1OC)C(c1ccc(OC(F)(F)F)cc1)=N[C@@H]1CC[C@@H](O)C[C@H]21` (racemic) [Compound 58, (±)-(2RS,4aRS,10bRS)-9-Ethoxy-8-methoxy-6-(4-trifluoromethoxy-phenyl)-1,2,3,4,4a,10b-hexahydro-phenanthridin-2-ol] the IC50 was 0.182 to 6.03 nM.
For `CCOc1cc2c(cc1OC)C(c1ccc(OC(F)F)c(OCC3CC3)c1)=N[C@@H]1CC[C@@H](O)C[C@H]21` (racemic) [Compound 54, (±)-(2RS,4aRS,10bRS)-6-[3-Cyclopropylmethoxy-4-(1,1-difluoro-methoxy)-phenyl]-9-ethoxy-8-methoxy-1,2,3,4,4a,10b-hexahydro-phenanthridin-2-ol], the IC50 was 0.182 to 6.03 nM.
With `COc1cc2c(cc1OC)[C@H]1C[C@H](O)CC[C@H]1N=C2c1ccc(Oc2ccccc2)cc1` (racemic) [Compound 64, (±)-(2RS,4aRS,10bRS)-8,9-Dimethoxy-6-(4-phenoxy-phenyl)-1,2,3,4,4a,10b-hexahydro-phenanthridin-2-ol] the IC50 was 0.182 to 6.03 nM.
`CCOc1cc2c(cc1OC)C(c1ccc(C#N)cc1)=N[C@@H]1CC[C@@H](O)C[C@H]21` (racemic) [Compound 52, (±)-4-((2RS,4aRS,10bRS)-9-Ethoxy-2-hydroxy-8-methoxy-1,2,3,4,4a,10b-hexahydro-phenanthridin-6-yl)-benzonitrile] gave an IC50 of 0.182 to 6.03 nM.
`CCOc1cc2c(cc1OC)C(c1ccc(OCC)c(OCC3CC3)c1)=N[C@@H]1CC[C@@H](O)C[C@H]21` (racemic) [Compound 53, (±)-(2RS,4aRS,10bRS)-6-(3-Cyclopropylmethoxy-4-ethoxy-phenyl)-9-ethoxy-8-methoxy-1,2,3,4,4a,10b-hexahydro-phenanthridin-2-ol] showed an IC50 of 0.182 to 6.03 nM.
In the case of `COCCO[C@@H]1CC[C@H]2N=C(c3ccc(OCC4CC4)c(OCC4CC4)c3)c3cc(OC)c(OC)cc3[C@H]2C1` (racemic) [Compound 76, (±)-(2RS,4aRS,10bRS)-6-(3,4-Bis-cyclopropylmethoxy-phenyl)-8,9-dimethoxy-2-(2-methoxy-ethoxy)-1,2,3,4,4a,10b-hexahydro-phenanthridine], the IC50 is reported as 0.182 to 6.03 nM.
`CCOc1cc2c(cc1OC)C(c1ccc(Br)cc1)=N[C@@H]1CC[C@@H](O)C[C@H]21` (racemic) [Compound 62, (±)-(2RS,4aRS,10bRS)-6-(4-Bromo-phenyl)-9-ethoxy-8-methoxy-1,2,3,4,4a,10b-hexahydro-phenanthridin-2-ol] gave an IC50 of 0.182 to 6.03 nM.
With `CCOc1cc2c(cc1OC)C(c1cccc(OC(F)F)c1)=N[C@@H]1CC[C@@H](O)C[C@H]21` (racemic) [Compound 56, (±)-(2RS,4aRS,10bRS)-6-[3-(1,1-Difluoro-methoxy)-phenyl]-9-ethoxy-8-methoxy-1,2,3,4,4a,10b-hexahydro-phenanthridin-2-ol] the IC50 was 0.182 to 6.03 nM.
Molecule `COc1cc2c(cc1OC)[C@H]1C[C@H](O)CC[C@H]1N=C2c1ccc(C)cc1` (racemic) [Compound 63, (±)-(2RS,4aRS,10bRS)-8,9-Dimethoxy-6-p-tolyl-1,2,3,4,4a,10b-hexahydro-phenanthridin-2-ol] has an IC50 of 0.182 to 6.03 nM.
For `CCOc1cc2c(cc1OC)C(c1cccc(F)c1)=N[C@@H]1CC[C@@H](O)C[C@H]21` (racemic) [Compound 61, (±)-(2RS,4aRS, 10bRS)-9-Ethoxy-6-(3-fluoro-phenyl)-8-methoxy-1,2,3,4,4a,10b-hexahydro-phenanthridin-2-ol], the IC50 was 0.182 to 6.03 nM.
For `CCOc1cc2c(cc1OC)C(c1ccc(OC(F)(F)C(F)F)cc1)=N[C@@H]1CC[C@@H](O)C[C@H]21` (racemic) [Compound 57, (±)-(2RS,4aRS,10bRS)-9-Ethoxy-8-methoxy-6-[4-(1,1,2,2-tetrafluoro-ethoxy)-phenyl]-1,2,3,4,4a,10b-hexahydro-phenanthridin-2-ol], the IC50 was 0.182 to 6.03 nM.
